Reference: article PMC3880318, “Green Tea and One of Its Constituents, Epigallocatechine-3-gallate, Are Potent Inhibitors of Human 11β-hydroxysteroid Dehydrogenase Type 1” (PLoS ONE, 2014)
Several values for one entry are separate records, joined by “and”; a condition that tells them apart may be missing. Equal entries are not always repeated. Entries after “also recorded” stand apart in the source; their conditions may differ. Where two headings read alike, the source gives them in different places.

Tests used:
[1] = target: T1, human microsomal 11β-HSD1 (Homo sapiens, UniProt P28845); assay: Inhibition of cortisone reduction (11β-HSD1 reductase activity) in human liver microsomes, cortisol quantified by HPLC; conditions: for IC50: IC50, inhibition of cortisone reduction
T1 sequence (P28845 whole entry): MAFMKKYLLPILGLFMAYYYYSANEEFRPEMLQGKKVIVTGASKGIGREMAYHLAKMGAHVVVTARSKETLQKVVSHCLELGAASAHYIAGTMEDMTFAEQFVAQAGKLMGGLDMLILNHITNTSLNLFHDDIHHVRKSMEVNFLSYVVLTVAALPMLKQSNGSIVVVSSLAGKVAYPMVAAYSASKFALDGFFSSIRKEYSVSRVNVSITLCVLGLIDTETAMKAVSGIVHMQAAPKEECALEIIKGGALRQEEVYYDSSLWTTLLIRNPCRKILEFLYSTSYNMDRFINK
Protocol: (§1) In terms of 11β-HSD1 reductase activity, inhibition analysis was performed as follows: 50 µl of tea extract were added to a mixture containing 400 µM cortisone, 0.8 mM NADPH solution in 100 mM phosphate buffer pH 7.4. […] The total assay volume was 250 µl.
(§2) The reaction was stopped by adding 250 µl ice-cold ethylacetate and vortexing, followed by a 30 sec centrifugation at 13,000 RPM in a microcentrifuge. The organic phase was separated and the aqueous phase extracted two more times with 250 µl ethylacetate. The ethylacetate phases were combined and the solvent was removed in a SpeedVac (ThermoSavant). The resulting residue was dissolved in 150 µl methanol-water (58∶42, v/v) and used for metabolite quantification by HPLC.
(§3) Product yield was quantified by peak integration of the cortisone and cortisol peaks, respectively.
(§4) The data obtained were plotted as substrate-velocity curves and analyzed by nonlinear-regression.

[2] = target: T1, human microsomal 11β-HSD1; assay: biochemical
Protocol: as §1, §2, §3, §4

purified 11β-HSD1 [3] = target: T2, purified 11β-HSD1 (Homo sapiens, UniProt P28845); assay: Western Blot analysis for EGCG-induced 11β-HSD1 aggregate formation; conditions: preincubation 3 h at 37°C, up to 100 µM
T2 construct: from tissue; host or cells: human liver
T2 sequence (P28845 whole entry): as above
Protocol: To exclude EGCG-induced 11β-HSD1 aggregate formation, purified 11β-HSD1 (2.14 µg) was preincubated with 25–100 µM EGCG (3 h at 37°C) and then prepared for sodium dodecyl sulfate polyacrylamide gel electrophoresis (SDS-PAGE) according to the manufacturer's protocol. As a control, the same volume of untreated purified protein was loaded onto the parallel lane.
The resolved proteins were transferred to nitrocellulose membranes. After blocking the membrane for 1 h at RT with 5% non-fat dry milkpowder in PBS-buffer, the blocking solution was replaced by the primary antibody at a 1∶2,000 dilution and the membrane was incubated at 4°C for about 16 h. Primary and secondary antibodies were diluted in PBS containing 2.5% non-fat dry milkpowder. The membrane was washed three times and then the corresponding secondary antibody was added at a dilution of 1∶10,000. After a 1.5 h incubation at RT the membrane was washed three times and the specific Western blot signals of 11β-HSD1 were detected by the ECL Western Blotting System according to the manufacturer's instructions.

purified 11β-HSD1 [4] = target: T2, purified 11β-HSD1; assay: Inhibition of cortisone reduction by purified human 11β-HSD1; type: biochemical
Protocol: The total assay volume was 250 µl.

[5] = target: T3, 11β-HSD1 in human liver microsomes (Homo sapiens, UniProt P28845); assay: Inhibition of cortisol oxidation (11β-HSD1 dehydrogenase activity) in human liver microsomes, HPLC; type: biochemical; conditions: pH 9.0, NADP
T3 construct: The reaction was started by adding 5 µl of human liver microsomes (218 µg protein); from tissue; host or cells: human liver (microsomal fraction)
T3 sequence (P28845 whole entry): as above
Protocol: Here, the incubation time was 60 min at 37°C in a 100 mM phosphate buffer pH 9.0.

[6] = read-out: inhibition of cortisone reduction

Oc1cc(O)c2c(c1)O[C@@H](c1cc(O)c(O)c(O)c1)[C@H](O)C2 [GC, (−)-gallocatechin]
inhibition at 100 µM [1, 6]: ~53%

O=C(O[C@@H]1Cc2c(O)cc(O)cc2O[C@@H]1c1cc(O)c(O)c(O)c1)c1cc(O)c(O)c(O)c1 [EGCG, (−)-epigallocatechin-3-gallate]
Ki [2]: 22.7 µM and 17.8 µM | protein aggregate formation (purified 11β-HSD1 [3]): did not induce protein aggregate formation | type of inhibition (purified 11β-HSD1 [4]; purified 11β-HSD1, with respect to cortisone): mixed inhibition; also recorded: mixed mode | Ki (purified 11β-HSD1 [4]; purified human 11β-HSD1, read-out: Ki (estimated by Dixon-plot) on cortisone reduction): 20.9 µM | Ki (purified 11β-HSD1 [4]; purified human 11β-HSD1, read-out: Ki (non-linear regression) on cortisone reduction): 18.7 µM | IC50 [5]: 131 µM | IC50 ([1]; human liver microsomes, freshly prepared solution): 58 µM | IC50 ([1]; stored solution, human liver microsomes, aqueous solution stored at −20°C for one week): 26.9 µM | type of inhibition ([1]; human liver microsomes, with respect to cortisone): mixed inhibition | inhibition at 100 µM [1, 6]: ~75%

Oc1cc(O)c2c(c1)O[C@H](c1cc(O)c(O)c(O)c1)[C@H](O)C2 [EGC, (−)-epigallocatechin]
inhibition at 200 µM [1, 6]: ~25%

OO [hydrogen peroxide, reference compound]
influence on cortisol production (purified 11β-HSD1 [4]; up to 300 µM, purified human 11β-HSD1): No 11β-HSD1 inhibition | influence on cortisol production ([1]; up to 300 µM, human liver microsomes): No 11β-HSD1 inhibition
